Measurements taken from article PMC7023381, “Sulfonamide Inhibition Profile of the β-Carbonic Anhydrase from Malassezia restricta, An Opportunistic Pathogen Triggering Scalp Conditions” (Metabolites, 2020).
Where two headings read alike, the source gives them in different places.

Molecular target: T1, MreCA (Malassezia restricta, UniProt A0A3G2S4B9)
T1 construct: gene can; recombinant from synthetic gene in pET100D-Topo, E. coli BL21(DE3) codon plus; N-terminal His6-tag fusion, 27 kDa on SDS-PAGE; no tag cleavage told
T1 sequence (A0A3G2S4B9 1-238): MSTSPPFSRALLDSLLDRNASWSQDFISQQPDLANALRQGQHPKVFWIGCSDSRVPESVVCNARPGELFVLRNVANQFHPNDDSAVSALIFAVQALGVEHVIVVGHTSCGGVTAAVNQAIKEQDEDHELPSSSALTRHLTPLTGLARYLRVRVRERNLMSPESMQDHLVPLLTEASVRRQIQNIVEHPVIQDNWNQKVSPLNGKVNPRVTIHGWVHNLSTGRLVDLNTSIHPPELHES
Assay: stopped-flow CO2 hydrase assay
Format: biochemical

Compound | Ki (read-out: MreCA) [µM] | Ki [µM]
CCN[C@H]1CN(CCCOC)S(=O)(=O)c2sc(S(N)(=O)=O)cc21 [BRZ] | 0.7 | –
NS(=O)(=O)c1nnc(NS(=O)(=O)c2ccccc2)s1 [BZA] | 7.15 | –
Cc1ccc(-c2cc(C(F)(F)F)nn2-c2ccc(S(N)(=O)=O)cc2)cc1 [CLX] | 1.4 | –
NS(=O)(=O)c1cc(Cl)c(Cl)c(S(N)(=O)=O)c1 [DCP] | 3.06 | –
NC(N)=Nc1nc(CSCCC(N)=NS(N)(=O)=O)cs1 [FAM] | > 10 | –
NS(=O)(=O)c1cc2c(cc1Cl)NCNS2(=O)=O [HCT] | 8.5 | –
NS(=O)(=O)c1ccc(S(=O)(=O)Nc2cccc3c(Cl)c[nH]c23)cc1 [IND] | 0.87 | –
CC(=O)N=c1sc(S(N)(=O)=O)nn1C [MZA] | 3.9 | –
O=C1NS(=O)(=O)c2ccccc21 [SAC] | 6.2 | –
CCN1CCCC1CNC(=O)c1cc(S(N)(=O)=O)ccc1OC (stereo not drawn) [SLP] | 4.85 | –
NS(=O)(=O)c1ccc(N2CCCCS2(=O)=O)cc1 [SLT] | 0.67 | –
CC1(C)O[C@@H]2[C@@H](CO[C@@]3(COS(N)(=O)=O)OC(C)(C)O[C@@H]23)O1 [TPM] | 3.83 | –
Cc1onc(-c2ccccc2)c1-c1ccc(S(N)(=O)=O)cc1 [VLX] | 0.77 | –
NS(=O)(=O)Cc1noc2ccccc12 [ZNS] | > 10 | –
Nc1ccc(S(N)(=O)=O)cc1 [compound 2, 2] | 4.62 | –
NS(=O)(=O)c1cccc(S(N)(=O)=O)c1 [compound 3, 3] | > 10 | –
Cc1ccc(S(N)(=O)=O)cc1 [compound 4, 4] | 4.04 | –
NCc1ccc(S(N)(=O)=O)cc1 [compound 5, 5] | > 10 | –

Compound | Ki (read-out: MreCA) [µM] | Ki [µM]
NCCc1ccc(S(N)(=O)=O)cc1 [compound 6, 6] | – | > 10
Nc1ccc(S(N)(=O)=O)cc1F [compound 7, 7] | 4.59 | –
Nc1ccc(S(N)(=O)=O)cc1Cl [compound 8, 8] | > 10 | –
Nc1ccc(S(N)(=O)=O)cc1Br [compound 9, 9] | > 10 | –
NS(=O)(=O)c1cc(Cl)cc(Cl)c1O [compound 10, 10] | > 10 | –
Nc1cc(C(F)(F)F)c(S(N)(=O)=O)cc1S(N)(=O)=O [compound 11, 11] | 6.76 | –
Nc1cc(Cl)c(S(N)(=O)=O)cc1S(N)(=O)=O [compound 12, 12] | > 10 | –
Nc1nnc(S(N)(=O)=O)s1 [compound 13, 13] | > 10 | –
Cn1nc(S(N)(=O)=O)sc1=N [compound 14, 14] | > 10 | –
NS(=O)(=O)c1ccc(O)cc1 [compound 15, 15] | > 10 | –
NS(=O)(=O)c1ccc(CO)cc1 [compound 16, 16] | 6.51 | –
NS(=O)(=O)c1ccc(CCO)cc1 [compound 17, 17] | > 10 | –
NS(=O)(=O)c1ccc(C(=O)O)cc1 [compound 18, 18] | > 10 | –
Nc1nccc(Nc2ccc(S(N)(=O)=O)cc2)n1 [compound 19, 19] | 7.79 | –
Nc1ccc(S(=O)(=O)Nc2nnc(S(N)(=O)=O)s2)cc1 [compound 20, 20] | 0.91 | –
Nc1ccc(S(=O)(=O)Nc2ccc(S(N)(=O)=O)cc2)cc1 [compound 22, 22] | 3.74 | –
Nc1ccc(S(=O)(=O)NCc2ccc(S(N)(=O)=O)cc2)cc1 [compound 23, 23] | > 10 | –
Nc1ccc(S(=O)(=O)NCCc2ccc(S(N)(=O)=O)cc2)cc1 [compound 24, 24] | > 10 | –
